Values after ≈ are worked out from the molar mass of the structure shown.
Key:
[1] = Saturation solubility of diamorphine base in solvents
[2] = In vitro skin permeation from TTS, nude guinea pig skin model; type: in vitro ADME
Experimental: Diamorphine is determined as total of heroin+morphine metabolite.

heroin addicts = conditions: cited from earlier work
[3] = Rate of hydrolytic breakdown of diamorphine base in solvents (diamorphine content over time); conditions: for Diamorphine content: area percentages

CC(=O)Oc1ccc2c3c1O[C@H]1[C@@H](OC(C)=O)C=C[C@H]4[C@@H](C2)N(C)CC[C@@]341 [diamorphine base, diamorphine]
solubility ([1]; Benzyl nicotinate, organic solvent or mixture): 23.2 mg/mL (≈ 62.8 mM)
solubility ([1]; Benzyl nicotinate/Vitamin E 1:1, organic solvent or mixture): 17.7 mg/mL (≈ 47.9 mM)
solubility ([1]; Dimethylisosorbide, organic solvent or mixture): 12.8 mg/mL (≈ 34.6 mM)
solubility ([1]; Dimethylisosorbide/Vitamin E 1:1, organic solvent or mixture): 9.82 mg/mL (≈ 26.6 mM)
solubility ([1]; Lemon oil, oil or lipid): 10.3 mg/mL (≈ 27.9 mM)
solubility ([1]; Lemon oil/Vitamin E 1:1, oil or lipid): 8 mg/mL (≈ 21.7 mM)
solubility ([1]; N-Methylpyrrolidone, organic solvent or mixture): 32.2 mg/mL (≈ 87.2 mM)
solubility ([1]; N-Methylpyrrolidone/Vitamin E 1:1, organic solvent or mixture): 24.8 mg/mL (≈ 67.1 mM)
solubility ([1]; Oleic acid, oil or lipid): 22.6 mg/mL (≈ 61.2 mM)
solubility ([1]; Oleic acid/Vitamin E 1:1, oil or lipid): 17.2 mg/mL (≈ 46.6 mM)
solubility ([1]; R-(+)-Limonene, organic solvent or mixture): 25.1 mg/mL (≈ 67.9 mM)
solubility ([1]; R-(+)-Limonene/Vitamin E 1:1, organic solvent or mixture): 19 mg/mL (≈ 51.4 mM)
solubility ([1]; Tween 80, organic solvent or mixture): 5.81 mg/mL (≈ 15.7 mM)
solubility ([1]; Tween 80/Vitamin E 1:1, organic solvent or mixture): 4.45 mg/mL (≈ 12 mM)
solubility ([1]; Vitamin E, oil or lipid): 1.62 mg/mL (≈ 4.39 mM)
Skin passage in relation to morphine and buprenorphine ([2]; TTS matrix of same base formulation and loading, citrate buffer pH=3.0 + 0,1% NaN3, T=37° C., diamorphine determined as total of heroin + morphine metabolite): better skin passage
Skin flux in flow equilibrium (permeation rate) compared with morphine and buprenorphine ([2]; nude guinea pig skin, TTS of identical formulation, in some cases): markedly higher
State of health of the heroin addicts (heroin addicts; state-controlled administration, intravenous or pulmonary (cigarettes), 969 heroin addicts): Marked improvements
Effect of combinations of vitamin E with a further aprotic solvent on the rate of hydrolytic breakdown ([3]; combinations of vitamin E with solvent (Table 1)): surprisingly positive stabilizing effect
Diamorphine content ([3]; solvent Benzyl nicotinate/Vitamin E 1:1, t = 0.5 h): 99.2%
Diamorphine content ([3]; solvent Benzyl nicotinate/Vitamin E 1:1, t = 24 h): 99.0%
Diamorphine content ([3]; solvent Benzyl nicotinate, t = 0.5 h): 97.8%
Diamorphine content ([3]; solvent Benzyl nicotinate, t = 24 h): 86.5%
Diamorphine content ([3]; solvent Dimethylisosorbide/Vitamin E 1:1, t = 0.5 h): 100%
Diamorphine content ([3]; solvent Dimethylisosorbide/Vitamin E 1:1, t = 24 h): 99.8%
Diamorphine content ([3]; solvent Dimethylisosorbide, t = 0.5 h): 98.5%
Diamorphine content ([3]; solvent Dimethylisosorbide, t = 24 h): 93.5%
Diamorphine content ([3]; solvent Lemon oil/Vitamin E 1:1, t = 0.5 h): 99.1%
Diamorphine content ([3]; solvent Lemon oil/Vitamin E 1:1, t = 24 h): 98.9%
Diamorphine content ([3]; solvent Lemon oil, t = 0.5 h): 93.5%
Diamorphine content ([3]; solvent Lemon oil, t = 24 h): 80.5%
Diamorphine content ([3]; solvent N-Methylpyrrolidone/Vitamin E 1:1, t = 0.5 h): 99.8%
Diamorphine content ([3]; solvent N-Methylpyrrolidone/Vitamin E 1:1, t = 24 h): 99.7%
Diamorphine content ([3]; solvent N-Methylpyrrolidone, t = 0.5 h): 97.8%
Diamorphine content ([3]; solvent N-Methylpyrrolidone, t = 24 h): 87.8%
Diamorphine content ([3]; solvent Oleic acid/Vitamin E 1:1, t = 0.5 h): 99.6%
Diamorphine content ([3]; solvent Oleic acid/Vitamin E 1:1, t = 24 h): 99.6%
Diamorphine content ([3]; solvent Oleic acid, t = 0.5 h): 97.4%
Diamorphine content ([3]; solvent Oleic acid, t = 24 h): 90.3%
Diamorphine content ([3]; solvent R-(+)-Limonene/Vitamin E 1:1, t = 0.5 h): 99.7%
Diamorphine content ([3]; solvent R-(+)-Limonene/Vitamin E 1:1, t = 24 h): 99.6%
Diamorphine content ([3]; solvent R-(+)-Limonene, t = 0.5 h): 96.7%
Diamorphine content ([3]; solvent R-(+)-Limonene, t = 24 h): 87.7%
Diamorphine content ([3]; solvent Tween 80/Vitamin E 1:1, t = 0.5 h): 100%
Diamorphine content ([3]; solvent Tween 80/Vitamin E 1:1, t = 24 h): 100%
Diamorphine content ([3]; solvent Tween 80, t = 0.5 h): 99%
Diamorphine content ([3]; solvent Tween 80, t = 24 h): 93.4%
Diamorphine content ([3]; solvent Vitamin E, t = 0.5 h): 100%
Diamorphine content ([3]; solvent Vitamin E, t = 24 h): 100%

CCC(=O)C(CC(C)N(C)C)(c1ccccc1)c1ccccc1 (centres unmarked) [methadone]
Therapy of heroin dependents compared with heroin (heroin addicts; even on intravenous administration, Swiss experiment): inferior to heroin

Reference: US20050053647A1, “Pharmaceutical product comprising the active substance diamorphine, and its use in a process for treating opiate addiction” (priority 1999, published 2005)
